Where “and” joins values, the source holds several entries; their conditions need not be identical. Equal values may be shown once.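 Values below derive from 48-hour exposures of cells grown in 96-well plates, with endpoints linearly interpolated between the two concentrations bracketing the appropriate inhibition level. The concentration for 50% growth inhibition is given as GI50. TGI: total growth inhibition.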
Tests used:
Experiment in all cases: NCI-60 cell line screen, 48 h
[1] = test system: EKVX NSCLC
[2] = test system: UO-31 renal
[3] = test system: SK-MEL-28 melanoma
[4] = test system: OVCAR-4 ovarian
[5] = test system: SF-268 CNS
[6] = test system: K-562 leukemia
[7] = test system: A498 renal
[8] = test system: A549 NSCLC
[9] = test system: MCF7 breast
[10] = test system: MDA-MB-231 breast

| SMILES | GI50 [1] | GI50 [2] | TGI [2] | GI50 [3] | TGI [3] | GI50 [4] | TGI [4] | GI50 [5] | TGI [5] | GI50 [6] | GI50 [7] | TGI [7] | GI50 [8] | TGI [8] | GI50 [9] | TGI [10] | TGI [1] | TGI [6] | TGI [9] | GI50 [10] |
| --- | --- | --- | --- | --- | --- | --- | --- | --- | --- | --- | --- | --- | --- | --- | --- | --- | --- | --- | --- | --- |
| CC[C@](C)(O)C(=O)O[C@H]1C(=O)O[C@@H]2C[C@H]3C(C)=CC(=O)[C@@H](O)[C@]3(C)[C@H]3[C@@]4(O)OC[C@]32[C@@H]1[C@@H](C)[C@H]4O | 1.61 µM | 0.662 µM | 3.71 µM and 3.78 µM | 0.0609 µM | 0.264 µM and 0.16 µM | 0.112 µM | 1.26 µM and 0.923 µM | 0.155 µM | 0.633 µM and 0.226 µM | 84.1 nM | 0.95 µM | 3.36 µM and 1.15 µM | 2.75 µM | 14.9 µM and 9.66 µM | 0.335 µM | 4.34 µM |  |  |  |  |
| CCOC(=O)c1c2c(n(CC(C)C)c1C)-c1nc[nH]c1C(=O)C2=O | 15 µM | 16.3 µM | 29.9 µM | 19.3 µM | 33.4 µM | 12.7 µM | 25.3 µM | 15.2 µM | 28.5 µM | 6740 nM | 15.6 µM | 29 µM | 14.9 µM | 28.1 µM | 16.3 µM | 20.1 µM | 28.2 µM | 20.1 µM | 29.9 µM | 6.85 µM |
| CCn1c(-c2nonc2N)nc2cncc(C(=O)N3CCNCC3)c21 | > 25 µM | > 25 µM | > 25 µM | > 25 µM | > 25 µM | > 25 µM | > 25 µM | > 25 µM | > 25 µM | > 25000 nM | > 25 µM | > 25 µM | > 25 µM | > 25 µM | > 25 µM | > 25 µM | > 25 µM | > 25 µM | > 25 µM | > 25 µM |
| COc1ccc2c(c1)CCC1C2CCC2(C)C1CCC2(O)CNC(=O)CCCCC1CCSS1 (stereo unspecified) | 48 µM | 24.9 µM | > 100 µM | 64.9 µM | > 100 µM | 6.92 µM | 45.9 µM | 15.9 µM | > 100 µM | 2630 nM | 73.4 µM | > 100 µM | 5.73 µM | > 100 µM | 10.3 µM | 8.3 µM | > 100 µM | > 100 µM | 40.8 µM | 2.8 µM |
| CCN(CC)CCOc1ccc(C(=C(C)c2ccc(Cl)cc2)c2ccc(OCCN(CC)CC)cc2)cc1 | 0.989 µM | 0.503 µM | 0.969 µM | 0.602 µM | 1.1 µM | 0.586 µM | 1.32 µM | 0.659 µM | 1.49 µM | 627 nM | 1.79 µM | 6.12 µM | 0.632 µM | 1.31 µM | 0.445 µM | 1.12 µM | 3.5 µM | 1.74 µM | 0.966 µM | 0.581 µM |
| Cc1ccc2[nH]c(C(=O)NN3C(=O)CSC34CCCCC4C)c(-c3ccccc3)c2c1 (stereo unspecified) | 17 µM | 15.5 µM | 30.9 µM | 19.9 µM | 38.3 µM | 16.5 µM | 34.2 µM | 17.2 µM | 37.4 µM | 10800 nM | 17.6 µM | 34.5 µM | 13.2 µM | 28.2 µM | 14.9 µM | 34.5 µM | 33.8 µM | 42.1 µM | 39.2 µM | 17 µM |
